Here are results for three molecules from US20210205271A1 (The Johns Hopkins University, priority 2018, published 2021).

Where “and” joins values, the source holds several entries; their conditions need not be identical. Equal values may be shown once. Read-outs that look alike come from different tables or passages of the source.

The conditions of series [1]: cited from earlier work.
The conditions of series [2]: mouse, in vivo, iv, 1.5 mg/kg. As to the method:
(§1) All pharmacokinetic studies in mice were conducted according to protocols approved by the Animal Care and Use Committee at Johns Hopkins University. Male CD-1 mice between 25 and 30 g were obtained from Harlan, and maintained on a 12-h light-dark cycle with ad libitum access to food and water. […] The mice were sacrificed at specified time points post drug administration. For collection of plasma and brain tissue, animals were euthanized with CO2, and blood samples were collected in heparinized microtubes by cardiac puncture. Tissues were dissected and immediately flash frozen (−80° C.). Blood samples were spun at 2,000×g for 15 min, plasma was removed and stored at −80° C. until LC/MS analysis. Prior to extraction, frozen samples were thawed on ice. The calibration curves were developed using plasma and brain from naïve animals as a matrix. Plasma samples (50 μL), were processed using a single liquid extraction method by addition of 3004 of acetonitrile as with internal standard (losartan: 0.5 μM), followed by vortex mixing for 30 sec and then centrifugation at 10,000×g for 10 min at 4° C. For brain tissue, homogenized samples were vortex mixed and centrifuged as above. A 104 aliquot of supernatant was diluted with 35 µL of acetonitrile and mixed with 50 μL water containing 0.5 μM losartan as internal standard. Extracts were centrifuged at 10,000×g for 10 min at 4° C. Supernatants were transferred to 2504 polypropylene autosampler vials sealed with a Teflon cap. A volume of 34 was injected onto the ultra-performance liquid chromatography (UPLC) instrument for quantitative analysis by LC-MS/MS.

The conditions of series [3]: mouse, in vivo, po, 30 mg/kg. How it is done: Brain concentrations of MBZ were also measured in tandem.
as §1

A short description of series [4]: MBZ plasma exposure in male beagle dogs after oral administration. To be noted: PO […] MBZ equivalent. It counts as in vivo, dog.
For series [5] the following is noted: dog, in vivo, iv, 0.3 mg/kg.
Description: Using a co-solvent system comprising of 1% DMSO and 10% CremophorEL formulation, however, MBZ was successfully administered via IV at a dose of 1.5 mg/kg in mice (FIG. 3A) and a dose of 0.3 mg/kg in dog (FIG. 3B).
For series [6] the following is noted: rats; cited from earlier work.

With `COC(=O)Nc1nc2ccc(C(=O)c3ccccc3)cc2[nH]1` [MBZ, Mebendazole], in series [1] (pilot human study, one subject, intravenous and oral [3H]-mebendazole), the oral bioavailability is given as 17%. Also, the bioavailability in series [1] (second human study, five subjects) is 22% and 12-35%.
Mebendazole [MBZ-C]: in series [2], the AUC0-t came to 2.7 µM·h, the peak concentration (Cmax) worked out at 5.3 µM, the Tmax was 4.98 min and the Vd worked out at 1.4 L/kg. Also, the “time of Cmax post-dose” value in series [2] stood at 5 min. Moreover, in series [3], the “AUC0-t (MBZ, brain)” value came to 13.1 ± 4.2 nmol·h/g and the “AUC0-t (MBZ, plasma)” value amounted to 12.9 µM·h. In addition, in series [4], the “% F (oral bioavailability of MBZ)” value worked out at 11% and the “Tmax (MBZ, plasma)” value is 2 h. In series [5], this molecule registered an AUC0-t of 0.9 µM·h and a Vd of 1.3 L/kg.
With `COC(=O)NC(=S)Nc1cc(C(=O)c2ccccc2)ccc1N` [4-amino-3-(3′-methoxycarbonyl-2′-thioureido)benzophonone], the “fold improvement in plasma exposure versus equimolar oral MBZ” value in series [6] is 2 fold.

In general, bioavailability refers to dose-corrected exposure relative to a reference, in per cent. The Cmax is the maximum level reached in the sampled fluid or tissue. As usually defined, the Tmax is the time from dosing to the highest level. Usually Vd stands for a proportionality between amount in the body and measured concentration, not a real space. A higher Vd goes with wide distribution into tissue.
